Source: PMC11079024, “Identification of a family of species-selective complex I inhibitors as potential anthelmintics” (Nature Communications, 2024)
Like-named read-outs stand apart in the source and are kept apart here.

Experiments:
L1 wild-type C. elegans [1] = experiment: microbe, parasite or virus in culture; settings: Caenorhabditis elegans, read-out: C. elegans KCN Survival Assay LC50, estimated from fitted dose-response curves; mean of at least two biological replicates
L1 wild-type C. elegans [2] = settings: for Screen "Hit": 50 μM, KCN survival assay, hit = relative motility below 0.25
[3] = system: ben-1 mutant (ECA882) C. elegans; experiment: microbe, parasite or virus in culture; settings: Caenorhabditis elegans; for viability at 1 µM / viability at 2 µM / viability at 3.9 µM / viability at 15.6 µM / viability at 31.3 µM / viability at 62.5 µM / viability at 125 µM / viability at 250 µM / viability at 500 µM / viability at 1000 µM: read-out: C. elegans ben-1(e1880) development/viability
How it was run: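 Development and viability scored from single well images as total worm pixels divided by the matching DMSO control value, mean of ≥3 replicates. Worms added as synchronized L1s to HB101 suspension in liquid NGM with compound (1% DMSO v/v), grown 6 days at 20 °C with shaking.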

in vitro = settings: human; for CC50 at 2 days: HEK293 Cell Viability Assay LC50, HEK293 cells, estimated from fitted dose-response curves, mean of at least two biological replicates; for viability at 2 days, 3.13 µM / viability at 2 days, 6.25 µM / viability at 2 days, 12.5 µM / viability at 2 days, 25 µM / viability at 2 days, 50 µM / viability at 2 days, 100 µM: HEK293 cells (Flp-In-293), HEK293 viability
[4] = molecular target: B. taurus (heart) complex I (Bos taurus, UniProt P03887+P17694+P42026); experiment: biochemical; type: biochemical; settings: for IC50: B. taurus heart mitochondria, estimated from fitted dose-response curves, read-out: B. taurus Complex I IC50; for activity at 0.0001 µM / activity at 0.0005 µM / activity at 0.001 µM / activity at 0.0025 µM / activity at 0.005 µM / activity at 0.013 µM / activity at 0.025 µM / activity at 0.063 µM / activity at 0.125 µM / activity at 0.313 µM / activity at 0.625 µM / activity at 1.5 µM / activity at 3 µM / activity at 15 µM / activity at 37.5 µM / activity at 75 µM: read-out: B. taurus mitochondrial complex I activity; for Log IC50 B. taurus complex I: log10 of IC50 in µM, B. taurus mitochondria
How it was run: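 Complex I activity followed as DCIP reduction (600 nm, 30 s reads, 15 min) with 80 μM NADH and 60 μM decylubiquinone in 25 mM KPi pH 7.5 containing 2 μM antimycin A and 2 mM KCN. Freeze-thawed mouse or bovine heart mitochondria at 0.2 mg/mL; initial-rate percent of solvent control, single-point 100 μM or dose-response.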

[5] = Dose 0.2 µM, mean of at least three biological replicates
[6] = read-out: C. elegans (ben-1) Development & Viability Assay LC50
[7] = read-out: C. elegans ben-1 log10 LC50 (converted)

Chain of B. taurus (heart) complex I (P03887 whole entry): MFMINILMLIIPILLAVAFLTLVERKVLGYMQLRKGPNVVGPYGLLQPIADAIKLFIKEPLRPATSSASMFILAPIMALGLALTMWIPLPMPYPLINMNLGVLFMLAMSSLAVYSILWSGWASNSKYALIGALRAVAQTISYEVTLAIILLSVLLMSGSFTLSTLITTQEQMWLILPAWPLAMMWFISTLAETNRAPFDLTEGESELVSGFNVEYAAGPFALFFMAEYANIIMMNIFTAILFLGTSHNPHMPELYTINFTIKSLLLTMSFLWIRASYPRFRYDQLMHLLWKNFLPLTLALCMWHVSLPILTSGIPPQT
Chain of B. taurus (heart) complex I (P17694 34-463): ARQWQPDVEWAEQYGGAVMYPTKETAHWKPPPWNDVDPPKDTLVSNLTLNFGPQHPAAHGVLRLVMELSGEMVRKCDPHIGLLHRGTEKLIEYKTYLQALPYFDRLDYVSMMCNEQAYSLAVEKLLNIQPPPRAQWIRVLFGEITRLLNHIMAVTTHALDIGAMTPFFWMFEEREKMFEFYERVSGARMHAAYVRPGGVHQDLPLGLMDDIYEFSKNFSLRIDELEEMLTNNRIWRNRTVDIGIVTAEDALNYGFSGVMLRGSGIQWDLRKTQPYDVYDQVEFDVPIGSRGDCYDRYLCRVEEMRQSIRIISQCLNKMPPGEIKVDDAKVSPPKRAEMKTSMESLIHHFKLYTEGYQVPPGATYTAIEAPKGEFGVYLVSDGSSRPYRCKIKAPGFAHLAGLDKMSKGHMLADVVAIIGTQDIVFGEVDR
Chain of B. taurus (heart) complex I (P42026 38-216): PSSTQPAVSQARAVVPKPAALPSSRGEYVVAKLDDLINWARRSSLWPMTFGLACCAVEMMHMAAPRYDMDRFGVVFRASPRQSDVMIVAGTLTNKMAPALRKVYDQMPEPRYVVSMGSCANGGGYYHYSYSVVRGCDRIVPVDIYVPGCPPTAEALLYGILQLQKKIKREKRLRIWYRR

## Cc1ccc(SCCCCn2cnc3ccccc32)cc1 [Compound 7925333]
L1 wild-type C. elegans [1]
  LC50: 7.76 µM
L1 wild-type C. elegans [2]
  Screen "Hit": Y (hits were identified as compounds that reduced relative motility below 0.25 (75% reduction))
L1 wild-type C. elegans [2]; [5]
  C. elegans KCN Survival: 0.989
L1 wild-type C. elegans [2]; Dose 0.39 µM
  C. elegans KCN Survival: 1.001
L1 wild-type C. elegans [2]; Dose 1.56 µM
  C. elegans KCN Survival: 0.933
L1 wild-type C. elegans [2]; Dose 3.13 µM
  C. elegans KCN Survival: 0.876
L1 wild-type C. elegans [2]; Dose 6.25 µM
  C. elegans KCN Survival: 0.745
L1 wild-type C. elegans [2]; Dose 12.5 µM
  C. elegans KCN Survival: 0.174
L1 wild-type C. elegans [2]; Dose 25 µM
  C. elegans KCN Survival: 0.119
L1 wild-type C. elegans [2]; Dose 50 µM
  C. elegans KCN Survival: 0.151
L1 wild-type C. elegans [2]; Dose 100 µM
  C. elegans KCN Survival: 0.185
[3]; [6]
  LC50: 227 µM
[3]
  viability at 1 µM: 92%
  viability at 2 µM: 100%
  viability at 3.9 µM: 98%
  viability at 15.6 µM: 90.4%
  viability at 31.3 µM: 93.2%
  viability at 62.5 µM: 77.8%
  viability at 125 µM: 80.7%
  viability at 250 µM: 53.9%
  viability at 500 µM: 3.6%
  viability at 1000 µM: 1%
[3]; [7]
  LC50: 227 µM
In vitro
  CC50 at 2 days: 75.1 µM
  viability at 2 days, 3.13 µM: 88.6%
  viability at 2 days, 6.25 µM: 97%
  viability at 2 days, 12.5 µM: 99.2%
  viability at 2 days, 25 µM: 100%
  viability at 2 days, 50 µM: 77.2%
  viability at 2 days, 100 µM: 25.7%
[4]
  IC50: 7.31 µM
  activity at 0.0001 µM: 90.9%
  activity at 0.0005 µM: 87.2%
  activity at 0.001 µM: 87.5%
  activity at 0.0025 µM: 83.2%
  activity at 0.005 µM: 83.9%
  activity at 0.013 µM: 89.8%
  activity at 0.025 µM: 94.2%
  activity at 0.063 µM: 97.7%
  activity at 0.125 µM: 99.3%
  activity at 0.313 µM: 99.3%
  activity at 0.625 µM: 90.8%
  activity at 1.5 µM: 78.5%
  activity at 3 µM: 70%
  activity at 15 µM: 25.1%
  activity at 37.5 µM: 9.48%
  activity at 75 µM: 1.13%
  Log IC50 B. taurus complex I: 0.86 µM

## Clc1ccc(SCCCCn2cnc3ccccc32)cc1 [Compound 7925515]
L1 wild-type C. elegans [1]
  LC50: 6.74 µM
L1 wild-type C. elegans [2]
  Screen "Hit": Y (hits were identified as compounds that reduced relative motility below 0.25 (75% reduction))
L1 wild-type C. elegans [2]; [5]
  C. elegans KCN Survival: 0.966
L1 wild-type C. elegans [2]; Dose 0.39 µM
  C. elegans KCN Survival: 1.005
L1 wild-type C. elegans [2]; Dose 1.56 µM
  C. elegans KCN Survival: 0.967
L1 wild-type C. elegans [2]; Dose 3.13 µM
  C. elegans KCN Survival: 0.917
L1 wild-type C. elegans [2]; Dose 6.25 µM
  C. elegans KCN Survival: 0.704
L1 wild-type C. elegans [2]; Dose 12.5 µM
  C. elegans KCN Survival: 0.109
L1 wild-type C. elegans [2]; Dose 25 µM
  C. elegans KCN Survival: 0.129
L1 wild-type C. elegans [2]; Dose 50 µM
  C. elegans KCN Survival: 0.146
L1 wild-type C. elegans [2]; Dose 100 µM
  C. elegans KCN Survival: 0.182
[3]; [6]
  LC50: 40.8 µM
[3]
  viability at 1 µM: 92.2%
  viability at 2 µM: 97%
  viability at 3.9 µM: 94.8%
  viability at 15.6 µM: 84.7%
  viability at 31.3 µM: 65.4%
  viability at 62.5 µM: 25%
  viability at 125 µM: 5%
  viability at 250 µM: 3.7%
  viability at 500 µM: 3.1%
  viability at 1000 µM: 1%
[3]; [7]
  LC50: 40.8 µM
In vitro
  CC50 at 2 days: 57.3 µM
  viability at 2 days, 3.13 µM: 83.6%
  viability at 2 days, 6.25 µM: 92.4%
  viability at 2 days, 12.5 µM: 94.2%
  viability at 2 days, 25 µM: 96.8%
  viability at 2 days, 50 µM: 55.5%
  viability at 2 days, 100 µM: 12.7%
[4]
  IC50: 8.02 µM
  activity at 0.0001 µM: 102%
  activity at 0.0005 µM: 97.1%
  activity at 0.001 µM: 96.1%
  activity at 0.0025 µM: 95.6%
  activity at 0.005 µM: 88.9%
  activity at 0.013 µM: 95.1%
  activity at 0.025 µM: 90.6%
  activity at 0.063 µM: 95.8%
  activity at 0.125 µM: 98.1%
  activity at 0.313 µM: 94.7%
  activity at 0.625 µM: 97.6%
  activity at 1.5 µM: 86.3%
  activity at 3 µM: 74.8%
  activity at 15 µM: 26.8%
  activity at 37.5 µM: 5.44%
  activity at 75 µM: 2.46%
  Log IC50 B. taurus complex I: 0.90 µM
